# Results taken from PubChem BioAssay AID1919017 (Molecular Pharmacology Branch, DTP, NCI, 2023).
# Tested on: SW1271 complex spheroids with HUVEC/MSC, growth, % test/control
# Test: Anticancer human tumor SW1271 cell line growth inhibition [AhR];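 note: spheroids exposed to agents for 7 days before readout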
# Details: for IC50: curve of first compound; for viability, T/C: stronger effect = lower value
# In short: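 Agents were dosed in half-log steps down from roughly clinical Cmax, or from 10 microM where Cmax was unknown, alone and with AhR antagonists. Read-out: percent test/control growth of tumor spheroids containing HUVEC and MSC stromal cells.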
# [1] = second compound 0.1 µM, first compound 0.0316 µM
# [2] = second compound 0.1 µM, first compound 0.1 µM
# [3] = second compound 0.1 µM, first compound 0.316 µM
# [4] = second compound 0.1 µM, first compound 1 µM
# [5] = second compound 0.1 µM, first compound 3.16 µM
# [6] = second compound 0.1 µM, first compound 10 µM
# [7] = second compound 0.316 µM, first compound 0.0316 µM
# [8] = second compound 0.316 µM, first compound 0.1 µM
# [9] = second compound 0.316 µM, first compound 0.316 µM
# [10] = second compound 0.316 µM, first compound 1 µM
# [11] = second compound 0.316 µM, first compound 3.16 µM
# [12] = second compound 0.316 µM, first compound 10 µM
# [13] = second compound 1 µM, first compound 0.0316 µM
# [14] = second compound 1 µM, first compound 0.1 µM
# [15] = second compound 1 µM, first compound 0.316 µM
# [16] = second compound 1 µM, first compound 1 µM
# [17] = second compound 1 µM, first compound 3.16 µM
# [18] = second compound 1 µM, first compound 10 µM
# [19] = second compound 3.16 µM, first compound 0.0316 µM
# [20] = second compound 3.16 µM, first compound 0.1 µM
# [21] = second compound 3.16 µM, first compound 0.316 µM
# [22] = second compound 3.16 µM, first compound 1 µM
# [23] = second compound 3.16 µM, first compound 3.16 µM
# [24] = second compound 3.16 µM, first compound 10 µM
# [25] = second compound 10 µM, first compound 0.0316 µM
# [26] = second compound 10 µM, first compound 0.1 µM
# [27] = second compound 10 µM, first compound 0.316 µM
# [28] = second compound 10 µM, first compound 1 µM
# [29] = second compound 10 µM, first compound 3.16 µM
# [30] = second compound 10 µM, first compound 10 µM
smiles,measurement,setting,value
CC(C)c1c(-c2ccccc2)nc2c(C#N)c[nH]n2c1=O + Cc1ccccc1N=Nc1ccc(NC(=O)c2ccnn2C)c(C)c1,IC50,second compound 0.1 µM,> 10 µM
same,IC50,second compound 0.316 µM,> 10 µM
same,IC50,second compound 1 µM,> 10 µM
same,IC50,second compound 3.16 µM,> 10 µM
same,IC50,second compound 10 µM,> 10 µM
same,"viability, T/C",[1],99.6%
same,"viability, T/C",[2],85.9%
same,"viability, T/C",[3],94.9%
same,"viability, T/C",[4],78%
same,"viability, T/C",[5],102%
same,"viability, T/C",[6],102%
same,"viability, T/C",[7],102%
same,"viability, T/C",[8],110%
same,"viability, T/C",[9],112%
same,"viability, T/C",[10],107%
same,"viability, T/C",[11],85.3%
same,"viability, T/C",[12],77.3%
same,"viability, T/C",[13],90.5%
same,"viability, T/C",[14],97.6%
same,"viability, T/C",[15],91%
same,"viability, T/C",[16],113%
same,"viability, T/C",[17],107%
same,"viability, T/C",[18],94.4%
same,"viability, T/C",[19],93.3%
same,"viability, T/C",[20],88.3%
same,"viability, T/C",[21],130%
same,"viability, T/C",[22],109%
same,"viability, T/C",[23],119%
same,"viability, T/C",[24],101%
same,"viability, T/C",[25],76.5%
same,"viability, T/C",[26],88.5%
same,"viability, T/C",[27],108%
same,"viability, T/C",[28],113%
same,"viability, T/C",[29],88.2%
same,"viability, T/C",[30],87.6%
CC1COCCN1c1cc(-c2ccnn2C)c2ccnc(-c3ccn[nH]3)c2n1 (stereo not given) + Cc1ccccc1N=Nc1ccc(NC(=O)c2ccnn2C)c(C)c1,IC50,second compound 0.1 µM,0.683 µM
same,IC50,second compound 0.316 µM,> 1 µM
same,IC50,second compound 1 µM,> 1 µM
same,IC50,second compound 3.16 µM,> 1 µM
same,IC50,second compound 10 µM,> 1 µM
same,"viability, T/C","second compound 0.1 µM, first compound 0.00316 µM",98.9%
same,"viability, T/C","second compound 0.1 µM, first compound 0.01 µM",97.4%
same,"viability, T/C",[1],88.5%
same,"viability, T/C",[2],72.7%
same,"viability, T/C",[3],61.6%
same,"viability, T/C",[4],44.6%
same,"viability, T/C","second compound 0.316 µM, first compound 0.00316 µM",102%
same,"viability, T/C","second compound 0.316 µM, first compound 0.01 µM",126%
same,"viability, T/C",[7],92.7%
same,"viability, T/C",[8],81.2%
same,"viability, T/C",[9],74.8%
same,"viability, T/C",[10],49.2%
same,"viability, T/C","second compound 1 µM, first compound 0.00316 µM",112%
same,"viability, T/C","second compound 1 µM, first compound 0.01 µM",96.9%
same,"viability, T/C",[13],106%
same,"viability, T/C",[14],83.6%
same,"viability, T/C",[15],85.3%
same,"viability, T/C",[16],49.6%
same,"viability, T/C","second compound 3.16 µM, first compound 0.00316 µM",100%
same,"viability, T/C","second compound 3.16 µM, first compound 0.01 µM",102%
same,"viability, T/C",[19],85.8%
same,"viability, T/C",[20],57%
same,"viability, T/C",[21],63.5%
same,"viability, T/C",[22],63%
same,"viability, T/C","second compound 10 µM, first compound 0.00316 µM",93.3%
same,"viability, T/C","second compound 10 µM, first compound 0.01 µM",95%
same,"viability, T/C",[25],99.9%
same,"viability, T/C",[26],72.3%
same,"viability, T/C",[27],55.1%
same,"viability, T/C",[28],58.2%
CC1COCCN1c1cc(C2(S(C)(=N)=O)CC2)nc(-c2ccnc3[nH]ccc23)n1 (stereo not given) + Cc1ccccc1N=Nc1ccc(NC(=O)c2ccnn2C)c(C)c1,IC50,second compound 0.1 µM,> 10 µM
same,IC50,second compound 0.316 µM,> 10 µM
same,IC50,second compound 1 µM,> 10 µM
same,IC50,second compound 3.16 µM,> 10 µM
same,IC50,second compound 10 µM,> 10 µM
same,"viability, T/C",[1],87.6%
same,"viability, T/C",[2],105%
same,"viability, T/C",[3],90.8%
same,"viability, T/C",[4],119%
same,"viability, T/C",[5],89.4%
same,"viability, T/C",[6],52.5%
same,"viability, T/C",[7],100%
same,"viability, T/C",[8],95.2%
same,"viability, T/C",[9],96.9%
same,"viability, T/C",[10],106%
same,"viability, T/C",[11],67.6%
same,"viability, T/C",[12],58.8%
same,"viability, T/C",[13],96.8%
same,"viability, T/C",[14],111%
same,"viability, T/C",[15],106%
same,"viability, T/C",[16],89.6%
same,"viability, T/C",[17],90.4%
same,"viability, T/C",[18],56.7%
same,"viability, T/C",[19],97.5%
same,"viability, T/C",[20],112%
same,"viability, T/C",[21],104%
same,"viability, T/C",[22],96.7%
same,"viability, T/C",[23],70%
same,"viability, T/C",[24],61.1%
same,"viability, T/C",[25],102%
same,"viability, T/C",[26],91.8%
same,"viability, T/C",[27],104%
same,"viability, T/C",[28],95.4%
same,"viability, T/C",[29],68.1%
same,"viability, T/C",[30],54.9%
COc1ccc([C@@H](O)c2cc(-c3ncnc4cc(N5CCOCC5)ccc34)c(F)cc2Cl)nn1 + Cc1ccccc1N=Nc1ccc(NC(=O)c2ccnn2C)c(C)c1,IC50,second compound 0.1 µM,2.22 µM
same,IC50,second compound 0.316 µM,2.55 µM
same,IC50,second compound 1 µM,5.04 µM
same,IC50,second compound 3.16 µM,4.75 µM
same,IC50,second compound 10 µM,1.98 µM
same,"viability, T/C",[1],97.2%
same,"viability, T/C",[2],98.1%
same,"viability, T/C",[3],87.2%
same,"viability, T/C",[4],58.6%
same,"viability, T/C",[5],50%
same,"viability, T/C",[6],33.9%
same,"viability, T/C",[7],82.9%
same,"viability, T/C",[8],94.2%
same,"viability, T/C",[9],77.6%
same,"viability, T/C",[10],65%
same,"viability, T/C",[11],47.6%
same,"viability, T/C",[12],33.5%
same,"viability, T/C",[13],94.6%
same,"viability, T/C",[14],89%
same,"viability, T/C",[15],86.2%
same,"viability, T/C",[16],68.1%
same,"viability, T/C",[17],57.9%
same,"viability, T/C",[18],40.4%
same,"viability, T/C",[19],84.5%
same,"viability, T/C",[20],80.5%
same,"viability, T/C",[21],70.6%
same,"viability, T/C",[22],68.9%
same,"viability, T/C",[23],59.2%
same,"viability, T/C",[24],36.8%
same,"viability, T/C",[25],89.5%
same,"viability, T/C",[26],73.5%
same,"viability, T/C",[27],77.7%
same,"viability, T/C",[28],60.9%
same,"viability, T/C",[29],41.2%
same,"viability, T/C",[30],37.4%
O=C(C=Cn1cnc(-c2cc(C(F)(F)F)cc(C(F)(F)F)c2)n1)NNc1cnccn1 + Cc1ccccc1N=Nc1ccc(NC(=O)c2ccnn2C)c(C)c1,IC50,second compound 0.1 µM,2.02 µM
same,IC50,second compound 0.316 µM,1.39 µM
same,IC50,second compound 1 µM,2.47 µM
same,IC50,second compound 3.16 µM,> 3 µM
same,IC50,second compound 10 µM,> 3 µM
same,"viability, T/C","second compound 0.1 µM, first compound 0.00949 µM",87%
same,"viability, T/C","second compound 0.1 µM, first compound 0.03 µM",111%
same,"viability, T/C","second compound 0.1 µM, first compound 0.0949 µM",86.1%
same,"viability, T/C","second compound 0.1 µM, first compound 0.3 µM",64.5%
same,"viability, T/C","second compound 0.1 µM, first compound 0.949 µM",54.1%
same,"viability, T/C","second compound 0.1 µM, first compound 3 µM",46.7%
same,"viability, T/C","second compound 0.316 µM, first compound 0.00949 µM",78.9%
same,"viability, T/C","second compound 0.316 µM, first compound 0.03 µM",86.2%
same,"viability, T/C","second compound 0.316 µM, first compound 0.0949 µM",84%
same,"viability, T/C","second compound 0.316 µM, first compound 0.3 µM",64.8%
same,"viability, T/C","second compound 0.316 µM, first compound 0.949 µM",56%
same,"viability, T/C","second compound 0.316 µM, first compound 3 µM",42.8%
same,"viability, T/C","second compound 1 µM, first compound 0.00949 µM",111%
same,"viability, T/C","second compound 1 µM, first compound 0.03 µM",85.7%
same,"viability, T/C","second compound 1 µM, first compound 0.0949 µM",79%
same,"viability, T/C","second compound 1 µM, first compound 0.3 µM",79.2%
same,"viability, T/C","second compound 1 µM, first compound 0.949 µM",59.4%
same,"viability, T/C","second compound 1 µM, first compound 3 µM",45.8%
same,"viability, T/C","second compound 3.16 µM, first compound 0.00949 µM",109%
same,"viability, T/C","second compound 3.16 µM, first compound 0.03 µM",95.6%
same,"viability, T/C","second compound 3.16 µM, first compound 0.0949 µM",99.7%
same,"viability, T/C","second compound 3.16 µM, first compound 0.3 µM",61.4%
same,"viability, T/C","second compound 3.16 µM, first compound 0.949 µM",64.9%
same,"viability, T/C","second compound 3.16 µM, first compound 3 µM",49%
same,"viability, T/C","second compound 10 µM, first compound 0.00949 µM",94.8%
same,"viability, T/C","second compound 10 µM, first compound 0.03 µM",93%
same,"viability, T/C","second compound 10 µM, first compound 0.0949 µM",107%
same,"viability, T/C","second compound 10 µM, first compound 0.3 µM",71.2%
same,"viability, T/C","second compound 10 µM, first compound 0.949 µM",61.4%
same,"viability, T/C","second compound 10 µM, first compound 3 µM",45.7%
